Results as given in patent US4342751A (priority 1981, dated 1982).
Numbered stars: 1 amine (or outer) side, 2 acyl side, 3 side chain; on linkers, the order of the positions; unused ones are H or OH. Square brackets hold non-standard residues; d marks the D form. Peptide text beside a SMILES is read from it. X1 = CCC(N[*:1])C(C)C(=O)O[C@H](C(=O)[*:2])[C@@H](C)CC; X2 = C[C@H](N[*:1])C(=O)C(C)(C)C(=O)[*:2]; NMeY = CN[C@@H](Cc1ccc(O)cc1)C(=O)O; NMeI = CC[C@H](C)[C@H](NC)C(=O)O; NMeV = CN[C@H](C(=O)O)C(C)C

How the values were obtained:
[1] = tested on: Plasmopora viticola
[2] = tested on: Grape leaves (C. V. Niagara); settings: in vivo

CCC1NC(=O)[C@H](C)NC(=O)C(C)(C)C(=O)[C@H](C)NC(=O)[C@H](Cc2ccc(OC)cc2)N(C)C(=O)[C@H](C(C)C)N(C)C(=O)CNC(=O)[C@H]([C@@H](C)CC)N(C)C(=O)CNC(=O)[C@H]([C@@H](C)CC)OC(=O)C1C (stereo partly drawn) [Majusculamide C, majusculamide C] (cyclo(A[X1]G[NMeI]G[NMeV][NMeY](Me)[X2]))
In vivo effectiveness against grape downy mildew [1]: effective | Control of fungus ([1]; in vivo): control | Phytotoxicity rating, grape leaves [2]: 0
